Earlier results as cited in patent US20260048046A1, “METHOD FOR IMPROVING GROWTH PERFORMANCE IN FEEDLOT CATTLE” (Elanco US Inc., priority 2022, published 2026).
Like-named read-outs stand apart in the source and are kept apart here.

System: cattle
Settings: zilpaterol 8.3 mg/kg diet DM, Holland et al. (2010), cited from earlier work

## CC(C)NC1CCn2c(=O)[nH]c3cccc(c32)C1O (centres unmarked) [zilpaterol]
3 d removal prior to harvest
  Difference in HCW between zilpaterol fed and non-treated cattle: 14 kg
10 d removal prior to harvest
  Difference in HCW between zilpaterol fed and non-treated cattle: 17 kg
17 d removal prior to harvest
  Difference in HCW between zilpaterol fed and non-treated cattle: 5 kg
24 d removal prior to harvest
  Difference in HCW between zilpaterol fed and non-treated cattle: 6 kg
P≥0.14
  Final and carcass-adjusted final BW, effect of feeding zilpaterol: not affected
